Results as given in patent publication US4101536A, “Muramyldipeptide derivatives and process for the preparation thereof” (Daiichi Seiyaku Co., Ltd., priority 1976, dated 1978).
Where “and” joins values, the source holds several entries; their conditions need not be identical. Identical values can stand only once.

Legend:
MH134 hepatoma [1] = test: Antitumor activity on the suppression of MH-134 hepatoma; assay type: in vivo, C3H/He mice; details: intradermal, A = mice with tumor growth completely suppressed, B = tested mice
Method: Antitumor activity on the suppression of MH-134 hepatoma in C3H/He mice
The antitumor activity of the compounds of this invention was examined by using MH134 hepatoma in syngeneic C3H/He mice. A mixture of tumor cells of MH134 (1 × 10^5) and materials (100 or 20 μg) dissolved or suspended in phosphate buffered saline and transplanted intradermally into C3H/He mice and the tumor growth was measured in inoculated sites.

Hartley guinea pigs = test: Adjuvant activity on the induction of delayed-type hypersensitivity to ABA-Tyr (skin test); assay type: in vivo, guinea pig; details: with 50 μg ABA-Tyr in Freund's incomplete adjuvant, four footpads, skin test two weeks later, mm ± SE
Method: Adjuvant activity of the object compound on the induction of delayed-type hypersensitivity to ABA-Tyr.
Hartley guinea pigs were immunized into four footpads with 50 μg of N-acetyl-L-tyrosine-3-azobenzene-4'-arsonic acid (ABA-Tyr) in Freund's incomplete adjuvant with a test material dissolved or suspended in phosphate buffered saline. Control groups were immunized with ABA-Tyr alone in Freund's incomplete adjuvant.
Two weeks later, skin test with 100 μg of ABA-bacterial α-amylose (ABA-BαA) dissolved in saline was made and skin reaction was measured 24 hours after intradermal injection of test antigen.

[2] = test system: mastocytoma P815-X2 cells; test: Adjuvant activity on the induction of cell-mediated cytotoxic cells in the spleen of allogenic mice (Brunner's method); assay type: in vivo, C57BL/6J mice; details: phosphate buffered saline suspension, eleven days after
Method: Adjuvant activity on the induction of cell-mediated cytotoxic cells in the spleen of allogenic mice (C57BL/6J).
Three or four mice of C57BL/6J in each group were immunized intraperitoneally with a mixture of mastocytoma P815-X2 cells (1 × 10^4) and a test material dissolved or suspended in phosphate buffered saline. Control group was immunized with mastocytoma P815-X2 cells alone.
Eleven days after, cell-mediated cytotoxicity was determined by Brunner's method (Immunology 18, 501-515 1970).

[3] = test system: mastocytoma P815-X2 cells; details: immunization with allogeneic antigen, mastocytoma P815-X2 cell in vivo; prior-art statement; cited from earlier work
MH134 hepatoma [4] = details: MH134 hepatoma in C3H/He; prior-art statement; cited from earlier work
ovalmin protein antigen = details: increased serum antibody levels and induction of delayed-type hypersensitivity; prior-art statement; cited from earlier work
melanoma B16 = melanoma B16 in C57BL/6J; prior-art statement; cited from earlier work
[5] = dose 20 μg mixed with MH134 cells (1 × 10^5)
[6] = dose 10 μg/mice i.p. with P815-X2 cells (1 × 10^4)
[7] = dose 100 μg/mice i.p. with P815-X2 cells (1 × 10^4)
[8] = dose 100 μg mixed with MH134 cells (1 × 10^5)

Molecule | Antitumor Activity A/B Tumor Growth (MH134 hepatoma [1]; [5]) | Skin reaction with 100μg of ABA-BαA at 24 hrs. (Hartley guinea pigs; dose 30 μg) [mm] | Skin reaction with 100μg of ABA-BαA at 24 hrs. (Hartley guinea pigs; dose 300 μg) [mm] | Specific Target Cell Lysis [2, 6] [%] | Specific Target Cell Lysis [2, 7] [%] | Antitumor Activity A/B Tumor Growth (MH134 hepatoma [1]; [8]) | Skin reaction with 100μg of ABA-BαA at 24 hrs. (Hartley guinea pigs; dose 50 μg) | Skin reaction with 100μg of ABA-BαA at 24 hrs. (Hartley guinea pigs; dose 500 μg) | Skin reaction with 100μg of ABA-BαA at 24 hrs. (Hartley guinea pigs; dose 40 μg) [mm] | Skin reaction with 100μg of ABA-BαA at 24 hrs. (Hartley guinea pigs; dose 400 μg) [mm] | adjuvant activity in the generation of cell-mediated cytotoxic effector cells on the spleen [3] | antitumor activity on syngeneic mouse tumor system (MH134 hepatoma [4]) | immunoadjuvant activity (ovalmin protein antigen) | Skin reaction with 100μg of ABA-BαA at 24 hrs. (Hartley guinea pigs; dose 100 μg) [mm] | antitumor activity on syngeneic mouse tumor system (melanoma B16)
6-O-corynomycoloyl-N-acetylmuramyl-L-alanyl-D-isoglutamine [Coryno-L-Ala-D-isoGln] | 6/10 | 21.2 ± 1.9 | 22.0 ± 0.6 | 16.1 ± 5.0 | 28.8 ± 14.4 |  |  |  |  |  |  |  |  |  | 
6-O-mycomycoloyl-N-acetylmuramyl-L-alanyl-D-isoglutamine [Myco-L-Ala-D-isoGln] |  |  |  | 3.9 | 69.7 | 10/10 | 22.8 ± 0.6 mm and 12.8 ± 1.6 mm | 20.9 ± 0.8 mm and 17.1 ± 0.5 mm |  |  |  |  |  |  | 
6-O-mycomycoloyl-N-acetylmuramyl-L-ser-D-isoglutamine [Myco-L-Ser-D-isoGln] |  |  |  | 21.8 ± 15.2 | 30.4 ± 14.0 | 10/10 | 18.0 ± 0.6 mm | 15.0 ± 0.5 mm |  |  |  |  |  |  | 
6-O-mycomycoloyl-N-acetylmuramyl-glycyl-D-isoglutamine [Myco-Gly-D-isoGln] |  |  |  | 39.3 ± 3.2 | 77.0 ± 4.0 | 7/10 | 2.7 ± 0.7 mm | 15.3 ± 0.6 mm |  |  |  |  |  |  | 
6-O-nocardomycoloyl-N-acetylmuramyl-L-alanyl-D-isoglutamine [Nocardo-L-Ala-D-isoGln] | 5/10 |  |  | 21.0 ± 7.6 | 76.9 ± 3.2 |  |  |  | 24.5 ± 0.7 | 23.0 ± 1.5 |  |  |  |  | 
CCCCCCCCCCCCCCCCCC(=O)OCC1OC(O)C(NC(C)=O)C(OC(C)C(=O)NC(C)C(=O)NC(CCC(=O)O)C(N)=O)C1O (stereo not drawn) [Stearoyl-muramyldipeptide, 6-O-stearoyl-muramyldipeptide, reference compound] | 0/10 |  |  |  | 4.2 | 0/10 |  |  |  |  | no adjuvant activity | no antitumor activity | immunological properties almost similar to those of muramyldipeptide | 17.2 ± 1.2 | no antitumor activity
